Assay results from patent US11919901B2 (Syndax Pharmaceuticals, Inc., priority 2021, dated 2024).

What follows are molecules tested on MV4-11 cells (assay: Cell proliferation assay MV4;11 (CellTiter-Glo, 72 hours)). Conditions: Homo sapiens; MV4;11 leukemia cell line, 72 hours; read-out: MV4; 11 IC50.
Assay type: cell-based
Summary of the method: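 Luminescent CellTiter-Glo readout after 72 h culture, 37 °C, 5% CO2, expressed relative to vehicle-treated wells, with maximal inhibition taken at the highest dose. MLL-rearranged MV4-11 leukemia cells; final compound range 0.632 to 2000 nM in eight steps.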

Row | Structure (SMILES) | IC50 [nM]
1 | CC(C)NS(=O)(=O)N[C@@H]1CC[C@@H](CN2CCC3(CC2)CN(c2ncncc2Oc2ccc(F)cc2C(=O)N(CC(F)F)C(C)C)C3)OC1 [Example 150, N-(2,2-Difluoroethyl)-5-fluoro-N-isopropyl-2-((4-(7-(((2S,5R)-5-((N-isopropylsulfamoyl)amino)tetrahydro-2H-pyran-2-yl)methyl)-2,7-diazaspiro[3.5]nonan-2-yl)pyrimidin-5-yl)oxy)benzamide] | < 100
2 | CCCNS(=O)(=O)N[C@@H]1CC[C@@H](CN2CCC3(CC2)CN(c2ncncc2Oc2ccc(F)cc2C(=O)N(CC(F)F)C(C)C)C3)OC1 [Example 151, N-(2,2-Difluoroethyl)-5-fluoro-N-isopropyl-2-((4-(7-(((2S,5R)-5-((N-propylsulfamoyl)amino)tetrahydro-2H-pyran-2-yl)methyl)-2,7-diazaspiro[3.5]nonan-2-yl)pyrimidin-5-yl)oxy)benzamide] | < 100
3 | CCS(=O)(=O)N[C@@H]1CC[C@@H](CN2CCC3(CC2)CN(c2ncncc2Oc2ccc(F)cc2C(=O)N(CC(F)(F)F)C(C)C)C3)OC1 [Example 152, 2-((4-(7-(((2S,5R)-5-(Ethylsulfonamido)tetrahydro-2H-pyran-2-yl)methyl)-2,7-diazaspiro[3.5]nonan-2-yl)pyrimidin-5-yl)oxy)-5-fluoro-N-isopropyl-N-(2,2,2-trifluoroethyl)benzamide] | < 100
4 | CCNS(=O)(=O)N[C@@H]1CC[C@@H](CN2CCC3(CC2)CN(c2ncncc2Oc2ccc(F)cc2C(=O)N(CC(F)(F)F)C(C)C)C3)OC1 [Example 153, 2-((4-(7-(((2S,5R)-5-((N-Ethylsulfamoyl)amino)tetrahydro-2H-pyran-2-yl)methyl)-2,7-diazaspiro[3.5]nonan-2-yl)pyrimidin-5-yl)oxy)-5-fluoro-N-isopropyl-N-(2,2,2-trifluoroethyl)benzamide] | < 100
5 | CNS(=O)(=O)N[C@@H]1CC[C@@H](CN2CCC3(CC2)CN(c2ncncc2Oc2ccc(F)cc2C(=O)N(C(C)C)C2CC(F)(F)C2)C3)OC1 [Example 154, N-(3,3-Difluorocyclobutyl)-5-fluoro-N-isopropyl-2-((4-(7-(((2S,5R)-5-((N-methylsulfamoyl)amino)tetrahydro-2H-pyran-2-yl)methyl)-2,7-diazaspiro[3.5]nonan-2-yl)pyrimidin-5-yl)oxy)benzamide] | < 100
6 | CCNS(=O)(=O)N[C@@H]1CC[C@@H](CN2CCC3(CC2)CN(c2ncncc2Oc2ccc(F)cc2C(=O)N(C(C)C)C2CC(F)(F)C2)C3)OC1 [Example 155, N-(3,3-Difluorocyclobutyl)-2-((4-(7-(((2S,5R)-5-((N-ethylsulfamoyl)amino)tetrahydro-2H-pyran-2-yl)methyl)-2,7-diazaspiro[3.5]nonan-2-yl)pyrimidin-5-yl)oxy)-5-fluoro-N-isopropylbenzamide] | < 100
7 | C[C@@H]1COC[C@@H](C)N1C(=O)c1cc(F)ccc1Oc1cncnc1N1CC2(CCN(C[C@@H]3CC[C@@H](NS(=O)(=O)NCC(F)(F)F)CO3)CC2)C1 [Example 157, {[(3R,6S)-6-{[2-(5-{2-[(3R,5R)-3,5-Dimethylmorpholine-4-carbonyl]-4-fluorophenoxy}pyrimidin-4-yl)-2,7-diazaspiro[3.5]nonan-7-yl]methyl}oxan-3-yl]sulfamoyl}(2,2,2-trifluoroethyl)amine] | < 100
8 | C[C@@H]1COC[C@@H](C)N1C(=O)c1cc(F)ccc1Oc1cncnc1N1CC2(CCN(C[C@@H]3CC[C@@H](NS(=O)(=O)NCC4CC4)CO3)CC2)C1 [Example 158, (Cyclopropylmethyl)({[(3R,6S)-6-{[2-(5-{2-[(3R,5R)-3,5-dimethylmorpholine-4-carbonyl]-4-fluorophenoxy}pyrimidin-4-yl)-2,7-diazaspiro[3.5]nonan-7-yl]methyl}oxan-3-yl]sulfamoyl})amine] | < 100
9 | C[C@@H]1COC[C@@H](C)N1C(=O)c1cc(F)ccc1Oc1cncnc1N1CC2(CCN(C[C@@H]3CC[C@@H](NS(=O)(=O)NC4CC4)CO3)CC2)C1 [Example 159, N-[(3R,6S)-6-{[2-(5-{2-[(3R,5R)-3,5-Dimethylmorpholine-4-carbonyl]-4-fluorophenoxy}pyrimidin-4-yl)-2,7-diazaspiro[3.5]nonan-7-yl]methyl}oxan-3-yl](cyclopropylamino)sulfonamide] | < 100
10 | C[C@@H]1COC[C@H](C)N1C(=O)c1cc(F)ccc1Oc1cncnc1N1CC2(CCN(C[C@@H]3CC[C@@H](NS(=O)(=O)N(C)C)CO3)CC2)C1 [Example 160, {[(3R,6S)-6-{[2-(5-{2-[(3R,5S)-3,5-Dimethylmorpholine-4-carbonyl]-4-fluorophenoxy}pyrimidin-4-yl)-2,7-diazaspiro[3.5]nonan-7-yl]methyl}oxan-3-yl]sulfamoyl}dimethylamine] | < 100
11 | C[C@@H]1COC[C@H](C)N1C(=O)c1cc(F)ccc1Oc1cncnc1N1CC2(CCN(C[C@@H]3CC[C@@H](NS(=O)(=O)N4CCC4)CO3)CC2)C1 [Example 161, N-((3R,6S)-6-((2-(5-(2-((3R,5S)-3,5-Dimethylmorpholine-4-carbonyl)-4-fluorophenoxy)pyrimidin-4-yl)-2,7-diazaspiro[3.5]nonan-7-yl)methyl)tetrahydro-2H-pyran-3-yl)azetidine-1-sulfonamide] | < 100
12 | C[C@@H]1COC[C@H](C)N1C(=O)c1cc(F)ccc1Oc1cncnc1N1CC2(CCN(C[C@@H]3CC[C@@H](NS(=O)(=O)NCC(F)(F)F)CO3)CC2)C1 [Example 162, {[(3R,6S)-6-{[2-(5-{2-[(3R,5S)-3,5-Dimethylmorpholine-4-carbonyl]-4-fluorophenoxy}pyrimidin-4-yl)-2,7-diazaspiro[3.5]nonan-7-yl]methyl}oxan-3-yl]sulfamoyl}(2,2,2-trifluoroethyl)amine] | < 100
13 | C[C@@H]1COC[C@H](C)N1C(=O)c1cc(F)ccc1Oc1cncnc1N1CC2(CCN(C[C@@H]3CC[C@@H](NS(=O)(=O)NC4CC4)CO3)CC2)C1 [Example 163, N-[(3R,6S)-6-{[2-(5-{2-[(3R,5S)-3,5-Dimethylmorpholine-4-carbonyl]-4-fluorophenoxy}pyrimidin-4-yl)-2,7-diazaspiro[3.5]nonan-7-yl]methyl}oxan-3-yl](cyclopropylamino)sulfonamide] | < 100
14 | CC(C)N(C(=O)c1cc(F)ccc1Oc1cncnc1N1CC2(CCN(C[C@@H]3CC[C@@H](NS(=O)(=O)C4CC4)CO3)CC2)C1)[C@@H]1CCOC1 [Example 164, 2-((4-(7-(((2S,5R)-5-(Cyclopropanesulfonamido)tetrahydro-2H-pyran-2-yl)methyl)-2,7-diazaspiro[3.5]nonan-2-yl)pyrimidin-5-yl)oxy)-5-fluoro-N-isopropyl-N-((R)-tetrahydrofuran-3-yl)benzamide] | < 100
15 | CCN(CC)S(=O)(=O)N[C@@H]1CC[C@@H](CN2CCC3(CC2)CN(c2ncncc2Oc2ccc(F)cc2C(=O)N(C(C)C)[C@@H]2CCOC2)C3)OC1 [Example 165, 2-((4-(7-(((2S,5R)-5-((N,N-Diethylsulfamoyl)amino)tetrahydro-2H-pyran-2-yl)methyl)-2,7-diazaspiro[3.5]nonan-2-yl)pyrimidin-5-yl)oxy)-5-fluoro-N-isopropyl-N-((R)-tetrahydrofuran-3-yl)benzamide] | < 100
16 | CC(C)N(C(=O)c1cc(F)ccc1Oc1cncnc1N1CC2(CCN(C[C@@H]3CC[C@@H](NS(C)(=O)=O)CO3)CC2)C1)[C@@H]1CCOC1 [Example 166, 5-Fluoro-N-isopropyl-2-((4-(7-(((2S,5R)-5-(methylsulfonamido)tetrahydro-2H-pyran-2-yl)methyl)-2,7-diazaspiro[3.5]nonan-2-yl)pyrimidin-5-yl)oxy)-N-((R)-tetrahydrofuran-3-yl)benzamide] | < 100
17 | CC(C)N(C(=O)c1cc(F)ccc1Oc1cncnc1N1CC2(CCN(C[C@@H]3CC[C@@H](NS(=O)(=O)N(C)C)CO3)CC2)C1)[C@@H]1CCOC1 [Example 167, 2-((4-(7-(((2S,5R)-5-((N,N-Dimethylsulfamoyl)amino)tetrahydro-2H-pyran-2-yl)methyl)-2,7-diazaspiro[3.5]nonan-2-yl)pyrimidin-5-yl)oxy)-5-fluoro-N-isopropyl-N-((R)-tetrahydrofuran-3-yl)benzamide] | < 100
18 | CC(C)N(C(=O)c1cc(F)ccc1Oc1cncnc1N1CC2(CCN(C[C@@H]3CC[C@@H](NS(=O)(=O)N4CCC4)CO3)CC2)C1)[C@@H]1CCOC1 [Example 168, 2-((4-(7-(((2S,5R)-5-(Azetidine-1-sulfonamido)tetrahydro-2H-pyran-2-yl)methyl)-2,7-diazaspiro[3.5]nonan-2-yl)pyrimidin-5-yl)oxy)-5-fluoro-N-isopropyl-N-((R)-tetrahydrofuran-3-yl)benzamide] | < 100
19 | CC(C)N(C(=O)c1cc(F)ccc1Oc1cncnc1N1CC2(CCN(C[C@@H]3CC[C@@H](NS(=O)(=O)N4CCCC4)CO3)CC2)C1)[C@@H]1CCOC1 [Example 169, 5-Fluoro-N-isopropyl-2-((4-(7-(((2S,5R)-5-(pyrrolidine-1-sulfonamido)tetrahydro-2H-pyran-2-yl)methyl)-2,7-diazaspiro[3.5]nonan-2-yl)pyrimidin-5-yl)oxy)-N-((R)-tetrahydrofuran-3-yl)benzamide] | < 100
20 | CCN(C)S(=O)(=O)N[C@@H]1CC[C@@H](CN2CCC3(CC2)CN(c2ncncc2Oc2ccc(F)cc2C(=O)N(C(C)C)[C@@H]2CCOC2)C3)OC1 [Example 170, 2-((4-(7-(((2S,5R)-5-((N-Ethyl-N-methylsulfamoyl)amino)tetrahydro-2H-pyran-2-yl)methyl)-2,7-diazaspiro[3.5]nonan-2-yl)pyrimidin-5-yl)oxy)-5-fluoro-N-isopropyl-N-((R)-tetrahydrofuran-3-yl)benzamide] | < 100
21 | CC(C)N(C(=O)c1cc(F)ccc1Oc1cncnc1N1CC2(CCN(C[C@@H]3CC[C@@H](NS(=O)(=O)NCC(F)(F)F)CO3)CC2)C1)[C@@H]1CCOC1 [Example 171, 5-Fluoro-N-isopropyl-N-((R)-tetrahydrofuran-3-yl)-2-((4-(7-(((2S,5R)-5-((N-(2,2,2-trifluoroethyl)sulfamoyl)amino)tetrahydro-2H-pyran-2-yl)methyl)-2,7-diazaspiro[3.5]nonan-2-yl)pyrimidin-5-yl)oxy)benzamide] | < 100
